# Where a SMILES comes first, the peptide text is derived from it. [ ]: non-standard residue; d: D form. The star is where a group is joined. Nle = CCCC[C@H](N)C(=O)O; Cbz = O=C(OCc1ccccc1)*
# How the values were obtained:
# ubiquitinated tau = experiment: Accumulation of ubiquitinated tau in tau-transfected HEK cells treated with degradation inhibitors; type: cell-based, Human; conditions: 50 μM ALLN, 5 μM MG132 or 0.15 mM chloroquine, 24 h
# Description: Depletion of p62 levels by transfection of antisense (AS) p62 retarded the turnover of p62 (FIG. 12A). […] Collectively these findings reveal that tau turnover is regulated by both the expression of p62 and the presence of K63 polyubiquitin chains carried by tau. The best known function of protein ubiquitination is to target proteins for degradation by the 26S proteasome. However, K63 chains have been hypothesized to play a role aside of targeting proteins to the proteasome. To test whether K63 chains are able to signal proteasomal degradation, tau was first ubiquitinylated in an in vitro reaction with K63 ubiquitin. The protein complex containing polyubiquitinated tau on beads was then incubated with 26S proteasome supplemented with MgCl2 and ATP. The polyubiquitinated chains disappeared after incubation with purified 26S proteasome (FIG. 12B). To determine whether the observed disappearance of polyubiquitinated products is due to degradation or to the deubiquitinating activity in the 26S proteasome fraction, a deubiquitination inhibitor, Ub-H was added to the reaction. […] To test if ubiquitinated tau was targeted to the proteasome, HEK cells cotransfected with His-tau were treated with ALLN, MG132 or chloroquine. Both ALLN and MG132 block proteasome degradation, whereas chloroquine blocks degradation through the lysosome. It was observed that ubiquitinated tau accumulates in the presence of proteasome inhibitors, but not chloroquine, thus confirming that polyubiquitinated tau is degraded by the proteasome (FIG. 12C).
# [1] = system: tau aggregates in PC12 cells; experiment: Tau aggregate formation in NGF-treated PC12 cells (Table 3); type: cell-based; conditions: PC12, NGF 50 ng/ml; MG132 25 μM, Aβ peptides 10 μM; 6% without agent
# Description: PC12 cells were treated with NGF to induce tau polyubiquitination and treated or not with MG132 or Aβ and Aβ1-42, Aβ42-1. […] The relationship between aggregate formation and cell death was assessed (Tables, 3 & 4). Tau aggregate formation was observed upon treatment with MG1 32 or Aβ1-42 peptide. […] Furthermore, aggregate formation correlated with enhanced […] (Table 4).
# All cells were treated with NGF (50 ng/ml), followed by addition of control or inhibitory TRAF6 peptide +/−Aβ peptide. Cells were stained for tau and 300 cells from two independent experiments were scored for the presence of tau aggregates or not.
# PC12 cells = experiment: Cell survival assay (MTS) in NGF-treated PC12 cells (Table 4); type: cell-based; conditions: PC12, NGF 50 ng/ml, MG132 25 μM, Aβ peptides 10 μM, 24 h, 100% without agent
# Description: Cell Survival Assay—PC 2 cells were treated with 50 ng/ml NGF 24 h prior to addition of TRAF6 control or inhibitor peptide (75 μM). After 5 h, the cells were treated for an additional 24 h with or without MG132 (25 μM), Aβ peptide 42-1 or 1-42 (10 μM). Cell survival was measured by MTS assay.
# All cells were treated with NGF (50 ng/ml), followed by addition of control or inhibitory TRAF6 peptide +/−Aβ peptide. Survival was measured by MTS assay.
# [2] = system: p62 aggregates in HEK cells; experiment: p62 aggregate formation by confocal/fluorescence microscopy in transfected HEK cells; type: cell-based, Human; conditions: for large p62 aggregates upon inhibition of proteasomal degradation: MG132 data not shown; for size of aggregates of cotransfected p62, ubiquitin, TRAF6, tau, UbcH7: cotransfected cells (FIG. 9C), MG132 not shown; for formation of the p62 aggregates (microtubule dependence): data not shown
# Description: Immunofluorescence staining—All steps were done at room temperature unless stated otherwise. The inclusion bodies were placed on poly-L-lysine coated 12 well slides (Cel-line/Erie Scientific Co., Portmouth, N.H.) and let partially dry. Inclusion bodies on the slides were fixed for 10 min in 3% paraformaldehyde (Electron Microscopy Sciences, Fort Washington, Pa.) and permeabilized with 0.1% Triton X-100 in PBS for 15 minutes. The inclusion bodies were incubated in blocking buffer (3% non fat dry milk in PBS) for 1 h, prior to incubation with primary antibodies at 4° C. overnight. After washing with PBS, the secondary antibody (Molecular Probes Inc., Eugene, Oreg.) in blocking buffer was applied for 1 h. After extensive washing in PBS, the samples were mounted using Vectashield (Vector Laboratories Inc., Burlingame, Calif.). The cells were fixed with 3% paraformaldehyde and processed similar to that of inclusion staining.
# Cells were incubated with rabbit anti-myc IgG or mouse anti-HA IgG and labeled with Texas Red-conjugated anti-rabbit antibodies (red) or Oregon Green-conjugated anti-mouse antibodies (green), respectively. Merged images with overlapping immunoreactivity are shown in yellow. Note that cells expressing p62 lacking its UBA domain (p62ΔUBA) fail to form aggregates or to colocalize with ubiquitin. All experiments were replicated three independent times with similar results. Small aggregates of p62 colocalized with ubiquitin which was dependant upon the presence of a UBA domain but not the N-terminal portion of p62. Aggregation may impair the proteasome or, alternatively, impaired proteasome activity may seed aggregates. Alternatively, impairment of the proteasome may enhance the formation of p62 aggregates containing polyubiquitin.
# In summary, through its UBA domain, p62 Interacts with polyubiquitinated substrates, and the UBA domain is necessary for aggregate formation.
# Since TRAF6 localized to the large aggregates along with polyubiquitin (FIG. 2B), these aggregates may represent the failed attempt of the cell to rid itself of TRAF6-K63-polyubiquitinated substrates sequestered through interaction with the UBA domain. […] Altogether, these findings reveal that p62 binds proteins with K63 chains through its UBA domain and that p62 aggregates sequester TRAF6 as well as K63-polyubiquitinated substrates.
# To further determine if the coassociation of tau-p62-TRAF6 and UbcH7 could be recapitulated in vitro, a cotransfection approach was undertaken. […] HEK cells were transfected with GFP-p62 followed by treatment or not with Aβ1-42 and Aβ42-1 peptides. […] This is consistent with the observation that microtubule dependent transport is important for the formation of p62 inclusions as assessed by treatment of the cells with nocodazole, a microtubule disrupting agent (9).
# HEK cells = experiment: Cell survival by MTS reagent in p62-transfected HEK cells (FIG. 1D); type: cell-based, Human; conditions: ALLN (50 μM) 30 h
# Description: In FIG. 1D HEK cells (in a 24-well plate) were transfected with myc-tagged wild-type p62, p62ΔUBA, or p62ΔN-term along with HA-tagged ubiquitin constructs. After 24 h of transfection, the cells were treated with or without ALLN (50 μM) for 30 h. Cell survival was assessed by the addition of MTS reagent for 2 h. Values plotted in FIG. 1D are means±standard error of the means of four different experiments.
# GFP-p62-expressing cells = experiment: Live/Dead Viability/Cytotoxicity assay of cells with or without p62 aggregates; type: cell-based; conditions: With ALLN; cells scored by GFP-p62 expression
# Description: Cell Death Assay—Live and dead cells were identified with LIVE/DEAD Viability/Cytotoxicity Kit (Molecular Probes, Eugene, Oreg.) according to the manufacturer's instruction.
# The role of aggregates and their relationship to cell survival are controversial. […] Viability of cells with p62 aggregates employing the Live/Dead Viability/Cytotoxicity assay was determined (Table 1).
# [3] = molecular target: T1, interaction of p62 with TRAF6 (Rattus norvegicus, UniProt B5DF45); experiment: TRAF6 immunoprecipitation and Western blot for p62/UbcH7 in NGF-stimulated PC12 cells; type: cell-based; conditions: 150 μM peptide 5 hours, NGF 15 min
# T1 construct: followed by NGF stimulation for 15 min and immunoprecipitation of TRAF6 followed by Western blotting for p62; endogenous in cells; host or cells: PC12
# Description: Immunoprecipitation and Western blotting—Each mg of lysate/inclusion bodies was incubated with 41 ng of primary antibody at 4° C. for 3 h and then with 50 μl of 50% agarose-coupled secondary antibody for 2 more hours at 4 C. The beads were washed three times with lysis buffer, eluted by adding SDS-PAGE sample buffer, and subjected to SDS-PAGE in 7.5-12% acrylamide gels. Immunoblotting was performed on nitrocellulose membranes and analyzed by western blotting with ECL detection reagents (Amersham Biosciences).
# (§1) The region spanning amino acids 225-251 is necessary for the interaction of p62 with TRAF6. The peptide containing TRAF6 binding motif in p62 along with the hydrophobic sequence containing the cell-permeable motif from Kaposi fibroblast growth factor sequence, […]-[…] (SEQ ID NO. 4) and control peptide […]-[…] (SEQ ID NO. 5) was synthesized. As a preliminary step, PC12 cells were pretreated with various concentrations of peptide for 5 h, followed by NGF stimulation for 15 min and immunoprecipitation with TRAF6 and western blotted with p62. […] The peptide was then tested for its ability to block NGF-induced tau polyubiquitination (FIG. 13A).
# (§2) The peptide containing the TRAF6-binding motif in p62 along with the hydrophobic sequence containing the cell-permeable motif from Kaposi fibroblast growth factor signal sequence […]-[…] (SEQ ID NO. 4) and control peptide […]-[…] (SEQ ID NO. 5) was synthesized. As a preliminary step, PC12 cells were pretreated with different concentrations (75-300 μM) of TRAF6 peptide for 5 hours followed by NGF stimulation for 15 min and immunoprecipitation of TRAF6 followed by Western blotting for p62. […] To address whether TRAF6 peptide affects the interaction of p62 and UbcH7 with TRAF6, PC12 cells were treated with or without 150 μM of control peptide or TRAF6 peptide for 5 hours and then stimulated with NGF for 15 min. By immunoprecipitating TRAF6, TRAF6 peptide (150 μM) abrogated the interaction of p62 with TRAF6, but not UbcH7, upon NGF treatment (FIG. 8A). […] The ability of the TRAF6 peptide to impair the ubiquitination process was investigated. Lysates recovered from NGF treated cells were immunoprecipitated with TrkA receptor antibody and blotted for ubiquitin or the receptor (FIG. 15B). […] The ability of the peptide to interrupt the formation of the functional TrkA-p62-TRAF6-UbcH7 complex on NGF stimulation as well was also investigated. TrkA was immunoprecipitated and blotted for the presence of each protein in the complex (FIG. 15C).
# [4] = system: internalization of NGF by PC12 cells; experiment: Internalization of NGF, 125I-NGF binding assay in PC12 cells (FIG. 15D); type: cell-based; conditions: PC12 cells pretreated with peptide (150 μM); control not shown
# Description: Additionally, PC12 cells were pretreated or not with TRAF6 peptide (150 μM) followed by measurement of internalized receptor employing 125I-NGF binding assay (FIG. 15D). […] Similarly, the level of internalized NGF was measured in PC12 cells transfected with wild-type ubiquitin, K48R or K63R ubiquitin mutants (FIG. 15E). Transfection of ubiquitin, or K48R mutant was without any effect on internalization of NGF. By comparison, transfection of K63R ubiquitin mutant totally abrogated internalization of the ligand. […] Thus, p62 serves as an adaptor, as well as, a scaffold for TRAF6-directed ubiquitination and K63 chains play a signaling role for internalization and sorting of the receptor.
# TrkA = experiment: NGF-dependent TrkA ubiquitination and TrkA complex formation in PC12 cells (FIG. 15B, 15C); type: cell-based; conditions: NGF treated, TrkA immunoprecipitation
# Description: as §2
# tau polyubiquitination = experiment: NGF-induced tau polyubiquitination in PC12 cells (FIG. 13A); type: cell-based; conditions: control not shown
# Description: as §1
# T1 sequence (B5DF45 whole entry): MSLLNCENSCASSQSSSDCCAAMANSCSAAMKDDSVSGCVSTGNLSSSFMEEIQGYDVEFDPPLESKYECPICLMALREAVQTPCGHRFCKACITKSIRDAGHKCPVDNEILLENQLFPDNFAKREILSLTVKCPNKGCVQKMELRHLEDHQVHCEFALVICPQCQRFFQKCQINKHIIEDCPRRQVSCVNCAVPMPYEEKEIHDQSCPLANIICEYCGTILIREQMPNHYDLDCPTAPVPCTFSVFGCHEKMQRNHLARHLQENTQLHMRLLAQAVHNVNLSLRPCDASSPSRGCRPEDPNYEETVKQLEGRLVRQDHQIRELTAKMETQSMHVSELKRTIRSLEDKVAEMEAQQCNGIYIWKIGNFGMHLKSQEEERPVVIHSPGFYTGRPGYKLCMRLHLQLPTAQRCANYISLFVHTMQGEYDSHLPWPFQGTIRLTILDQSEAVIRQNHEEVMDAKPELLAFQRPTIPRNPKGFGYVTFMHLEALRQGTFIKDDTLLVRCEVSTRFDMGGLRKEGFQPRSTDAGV
# T1 sequence (D3Z8W5 1-154 partner): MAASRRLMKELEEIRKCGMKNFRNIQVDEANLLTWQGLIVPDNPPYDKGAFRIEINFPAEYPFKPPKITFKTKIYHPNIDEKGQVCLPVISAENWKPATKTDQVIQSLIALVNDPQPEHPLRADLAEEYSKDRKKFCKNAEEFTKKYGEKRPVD
compound,measurement,setting,value
CCN(CC)CCCC(C)Nc1ccnc2cc(Cl)ccc12 (centres unmarked) [chloroquine],accumulation of ubiquitinated tau,ubiquitinated tau,not
Aβ1-42: neurotoxic amyloid beta peptide,"cells with tau aggregates, agent alone (Control, no TRAF6 peptide)",[1],72%
same,"cell survival, agent alone (Control, no TRAF6 peptide)",PC12 cells,45.7%
same,formation of p62 aggregates by Aβ peptide,[2]; HEK cells transfected with GFP-p62 (FIG. 9D),induced formation of p62 aggregates
"CCCC[C@@H](C=O)NC(=O)[C@H](CC(C)C)NC(=O)[C@H](CC(C)C)NC(C)=O [ALLN, N-acetyl-Leu-Leu-Norleu-AL] (Ac-Leu-Leu-[Nle]-aldehyde)",cell survival-promoting effects of p62,HEK cells,completely inhibited
same,size of the aggregates,"[2]; HEK cells, ALLN (50 μM) 24 h, 6 to 8 microns without ALLN",12 to 14 microns
same,GFP-p62-expressing cells accumulating large p62 aggregates,"[2]; HEK cells, ALLN treatment",100%
same,average number of aggregates per cell,"[2]; HEK cells, with versus without ALLN",essentially similar
same,large p62 aggregates upon inhibition of proteasomal degradation,[2]; HEK cells,large aggregates of p62 which contained sequestered polyubiquitin were visible
same,"size of aggregates of cotransfected p62, ubiquitin, TRAF6, tau, UbcH7",[2],increased in size
same,accumulation of ubiquitinated tau,ubiquitinated tau,accumulates
same,"% of cells, With aggregates, Alive",GFP-p62-expressing cells,48%
same,"% of cells, With aggregates, Dead",GFP-p62-expressing cells,52%
same,"% of cells, Without aggregates, Alive",GFP-p62-expressing cells,38%
same,"% of cells, Without aggregates, Dead",GFP-p62-expressing cells,62%
CC[C@]1(O)C[C@@H]2CN(CCc3c([nH]c4ccccc34)[C@@](C(=O)OC)(c3cc4c(cc3OC)N(C)[C@H]3[C@@](O)(C(=O)OC)[C@H](OC(C)=O)[C@]5(CC)C=CCN6CC[C@]43[C@@H]65)C2)C1 [vinblastine],formation of the p62 aggregates (microtubule dependence),[2],prevented their formation
"CC(C)C[C@@H](C=O)NC(=O)[C@H](CC(C)C)NC(=O)[C@H](CC(C)C)NC(=O)OCc1ccccc1 [MG132, Z-Leu-Leu-Leu-CHO] (Cbz-Leu-Leu-Leu-aldehyde)","cells with tau aggregates, agent alone (Control, no TRAF6 peptide)",[1],82%
same,"cell survival, agent alone (Control, no TRAF6 peptide)",PC12 cells,44.3%
same,large p62 aggregates upon inhibition of proteasomal degradation,[2]; HEK cells,large aggregates of p62 which contained sequestered polyubiquitin were visible
same,"size of aggregates of cotransfected p62, ubiquitin, TRAF6, tau, UbcH7",[2],increased in size
same,accumulation of ubiquitinated tau,ubiquitinated tau,accumulates
AAVALLPAVLLALLAP-ESASGASADASVNFLK [control peptide],interaction of p62 with TRAF6,[3],without effect
same,internalization of NGF,[4],not
same,NGF-dependent ubiquitination of TrkA,TrkA,no effect
same,NGF-induced tau polyubiquitination,tau polyubiquitination,not
COC(=O)Nc1nc2ccc(C(=O)c3cccs3)cc2[nH]1 [nocodazole],formation of the p62 aggregates (microtubule dependence),[2],prevented their formation

# Reference: US7491501B2, “Methods for identifying modulators of intracellular aggregate formation” (Auburn University, priority 2003, dated 2009)
